Results from patent publication US9132131B2, “Use of adenosine A3 receptor agonists for treatment of neuropathic pain” (Saint Louis University, priority 2011, dated 2015).

Columns and labels:
[1] = system: CCI of the sciatic nerve (mechano-allodynia); experiment: CCI model of neuropathic pain, mechano-allodynia (von Frey PWT); format: in vivo, mice
Experimental: CCI model of neuropathic pain. CCI to the sciatic nerve of the left hind leg in mice was performed under general anaesthesia using the well-characterized Bennett model. Briefly, mice (weighing 25-30 g at the time of surgery) were anesthetized with 3% isoflurane/100% O2 inhalation and maintained on 2% isoflurane/100% O2 for the duration of surgery. The left thigh was shaved, scrubbed with Nolvasan® and a small incision (1-1.5 cm in length) was made in the middle of the lateral aspect of the left thigh to expose the sciatic nerve. The nerve was loosely ligated around the entire diameter of the nerve at three distinct sites (spaced 1 mm apart) using silk sutures (6.0). The surgical site was closed with a single muscle suture and a skin clip. Pilot studies established that under our experimental conditions peak mechano-allodynia develops by day 5-day 7 (D5-D7) following CCI. Test substances or their vehicles were given subcutaneously (s.c.), intraperitoneally (i.p.) or orally by gavage (0.1 ml) at peak mechano-allodynia (D7).
Behavioral testing. […] The plantar aspect of hindpaws were probed three times with calibrated von Frey filaments (Stoelting, mice: 0.07-2.00 grams; rats: 0.407-26 grams) according to the “up-and-down” method. […] Briefly, each rat was placed in a Plexiglas chamber (28×40×35-cm, wire mesh floor) and after its acclimation, a servo-controlled mechanical stimulus was applied to the plantar surface that exerted a progressively increasing punctate pressure up to 50 grams within 10 seconds. Mechanical threshold was assessed three times at each time point to yield a mean value, reported as PWT (grams). […] Mechano-hyperalgesia was assessed in rats by the Randall and Sellitto paw pressure test using an analgesiometer (Ugo Basile). The nociceptive threshold was defined as the force (grams) at which the rat withdrew its paw (cut off set at 250 grams).
Determining ED50 values. Dose response data were curve-fitted using the least sum of square method by a normalized 4-parameter, variable slope non-linear analysis of the % Reversal of Mechano-allodynia in CCI and % Prevention of Mechano-allodynia or Mechano-hyperalgesia in CIPN using GraphPad Prism (Release 5.03, GraphPad Software, Inc.) from which the ED50 was determined and reported with the 95% confidence interval (95% CI). In the CCI model, the % Reversal of Mechano-allodynia=(PWT1h−PWTD7)/(PWTD0−PWTD7)×100, where PWTD0=Paw Withdrawal Threshold (g) at D0, PWT1h=Paw Withdrawal Threshold (g) at 1 hour after the administration of IB-MECA, gabapentin, amitriptyline, or combinations of IB-MECA with gabapentin or amitriptyline, and PWTD7=Paw Withdrawal Threshold (grams) at D7 prior to drug administration.
Statistical Analysis. Data are expressed as mean±SD for n animals. Behavioral data were analyzed by two-way repeated measures ANOVA with Bonferroni comparisons (full time course studies) or one-way ANOVA Dunnett's comparisons (1 hour behavioral data). The dose response curves were compared to a globally fitted curve using the extra sum-of-squares F-test comparisons to determine whether the data represented distinct curves between treatments. Significant differences were defined at a P<0.05. All statistical analysis was performed using GraphPad Prism (v5.03, GraphPad Software, Inc.).

[2] = system: oxaliplatin-induced neuropathic pain; experiment: Oxaliplatin-induced neuropathic pain (mechano-allodynia, mechano-hyperalgesia); format: in vivo, rats

## CNC(=O)[C@H]1O[C@@H](n2cnc3c(NCc4cccc(I)c4)ncnc32)[C@H](O)[C@@H]1O [IB-MECA, N^6-(3-iodobenzyl)-adenosine-5′-N-methyluronamide]
[1]; 0.2 μmol/kg
  anti-allodynic effect of low dose alone: devoid of anti-allodynic effects
[1]; 0.5 μmol/kg i.p. daily D8-D15, compared to D7
  reversal of mechano-allodynia on consecutive daily injections: reversed mechano-allodynia to the same degree as observed on D7
[1]; D7 after CCI, drug alone
  effect on PWT in contralateral paws: lacked effect
[1]; after single administration on D7
  time of maximal reversal of mechano-allodynia: ≤ 1 h
[1]; i.p. on D7
  onset of reversal of allodynia: 30 min
[1]; mice, D7 after CCI, drug alone
  Emax, reversal of mechano-allodynia: 100%
[1]; mice, D7 after CCI, ipsilateral paw, at time of maximal reversal, drug alone (IB-MECA i.p., morphine s.c., gabapentin i.p., amitriptyline oral)
  ED50, reversal of mechano-allodynia: 0.4 µmol/kg
[1]; single dose D7, IB-MECA 0.2-2, CI-IB-MECA 0.6, MRS1898 0.5 μmol/kg i.p., morphine 0.11-35 s.c., gabapentin 18-584 i.p., amitriptyline 3-191 μmol/kg oral
  reversal of mechano-allodynia in ipsilateral paws: reversed allodynia
[2]; 0.02-0.2 μmol/kg/d D0-D17
  effect on development of oxaliplatin-induced neuropathic pain: attenuated dose-dependently
[2]; oxaliplatin model, through D25
  neuropathic pain upon drug termination: did not emerge upon drug termination
[2]; rats, daily D0-D17
  D17 ED50, prevention of oxaliplatin-induced mechano-allodynia: 0.05 µmol/kg/day
  D17 ED50, prevention of oxaliplatin-induced mechano-hyperalgesia: 0.06 µmol/kg/day
